For orientation: EC90 means the concentration at which the effect reaches the 90% level. By IC50 is commonly meant the concentration at which inhibition is half-maximal.

Molecules are shown by their SMILES. Like-named read-outs stand apart in the source and are kept apart here.

One data set relates to HIV-1 xxBRU (wild type). Description: HIV-1 Q-RT-PCR assay in human PBM cells, strain xxBRU. It is filed as cell-based. Particulars: 5 days, viral RNA reduced by 90%. The procedure: Human PBM cells (1×10^6 cells/T25 flask) were PHA stimulated for 2 or 3 days, and infected with either a wild type (LAI and xxBRU) or a 3TC-resistant (xxBRU 184V) HIV-1 strain at 100 TCID50, as previously described (27). The culture was kept for 5 days in presence of test compounds at serial 1-log dilutions. Subsequently, human PBM cells were removed from the culture supernatant by centrifugation (10 minutes, 400×g, 4° C.). This clarified supernatant was tested either in the RT-assay, or in the Q-RT-PCR assay.
Viral RNA present in the culture supernatant was prepared using commercially available columns (QIAamp Viral RNA mini Kit, Qiagen, Valencia, Calif.). Viral RNA was detected in real-time by monitoring increases in fluorescence signal that resulted from degradation of a quenched fluorescent probe molecule following the hybridization of the probe to the arnplified viral DNA (TaqMan 7700 chemistry, Applied Biosystems, Foster City, Calif.). The TaqMan probe and primers were designed using the Primer Express software (Applied Biosystems); they cover highly conserved sequences complementary to an 81 base pair long fragment from the HIV-1 RT gene between codon 230 and 257 of the group MHIV-1 genome; • probe 5′-6FAM-[…]-TAMRA-3′ (Sequence 1) • sense primer: 5′-[…]-3′ (Sequence 2); and • antisense primer 5′-[…]-3′ (Sequence 3).
A total of 5 μL RNA was RT-amplified using reagents and conditions as described by the manufacturer (Applied Biosystems). […] Copy numbers were calibrated using the Roche Amplicor HIV-1 Monitor test™ (Roche Diagnostics, Branchburg, N.J.) on a 1-log dilution series of a clinical HIV-1 genotype B isolate (attenuated in vitro to obtain a high viral load). The 10-6 diluted sample became positive at threshold cycle (Ct=PCR cycle threshold where a sample becomes detectable)=35.52, which corresponded to 1,410 copies/mL in the Roche monitor HIV-1 version II assay. When validated over a dynamic range of 3 logs of virus, there was excellent correlation (r2˜1) between the two methodologies. […] Therefore, the currently designed primer and probe set allowed reliable quantification of both clinical samples and HIV-1 in vitro preparations.
HIV-1 present in culture supernatant fluids was quantified by two different methodologies: i) the Q-RT-PCR with read-out in log copies/mL; and ii) the endogenous viral RT assay on cell supernatant with read-out in log counts per minute/mL (CPM/mL). Upon addition of antiviral compounds to the culture media, a dose-related decrease in virus production was observed. Although the two methodologies measured different parameters (viral RNA versus active RT enzyme), results were not markedly different from each other. The HIV-1 Q-RT-PCR results were compared with a previously established cell-based antiviral drug evaluation assay (endogenous HIV-1 RT polymerization activity in cell supematant)(27).

A further data set has as its system BVDV (strain NADL). Description: BVDV Q-RT-PCR assay in MDBK cells. Particulars: read-out: BVDV assay Q-PCR EC90. It is filed as cell-based, bovine viral diarrhea virus. The procedure:
Madin-Darby Bovine Kidney (MDBK) cells were maintained in DMEM/F12 supplemented with 10% heat-inactivated horse serum at 37° C. in a humidified, 5% CO2 atmosphere. Cells were seeded in 96-well plates at 5×10^3 cells/wcll and incubated for 1 hour. BVDV (strain NADL) was used to infect the cells in monolayer at MOI 0.02. After 45 minutes of infection, the viral inoculum was removed and the cells were washed twice. Media or media containing test compound was added to these cells, followed by 24 hour incubation. Cell supernatant fluids were collected, clarified by centrifugation (2 minutes, 3,000 g, room temperature) and viral RNA was prepared (QIAamp Viral RNA mini Kit, Qiagen). Viral RNA was detected in real-time RT-PCR.

The test system of another data set is HBV. Description: HBV Q-PCR assay in HepAD38 (AD38) cells. The format is cell-based, hepatitis B virus. The settings on record: for EC90: read-out: HBV assay Q-PCR EC90. The procedure: The HepAD38 cell line replicates HBV under conditions that can be regulated with tetracycline (12, 15). In the presence of this drug, the cell supernatant is virtually free of viral DNA, but upon the removal of tetracycline from the culture medium, these cells secrete virus-like particle into the supernatant (12). HepAD38 cells were seeded at 5×10^4 cells/well in a 96-well plate in seeding medium (DMEM/F12+10% FBS, 50 μg/mL penicillin, 50 μg/mL streptomycin, 100 μg/mL kanamycin, 400 μg/mL G418, and 0.3 μg/mL tetracycline) and incubated for 2 days at 37° C. in a 5% CO2 humid atmosphere. The seeding media was removed, and cells were washed 3 times with PBS. Cells were then incubated with 200 μL assay medium (DMEM/F12+10% FBS+P/S/K) containing either no compound, test compound, or control drugs at 10 μM. After a 5-day incubation, the cell supernatant was collected and stored at −70° C. until HBV DNA was quantified. HBV DNA was extracted from supernatant using QiaAmp DNA blood Mini kit (Qiagen) and nucleic acids eluted in 200 μL. Viral DNA was detected in Q-PCR. The TaqMan probe and primers were designed using the Primer Express software (Applied Biosystems) and cover highly conserved sequences complementary to the DNA sequences present in HBsAg (24). A total of 5 μL DNA was amplified using reagents and conditions as described by the manufacturer (Applied Biosystems). […]

Another data set concerns HepG2. The data set can be described thus: Toxicity assay (MTS/MTT dye), HepG2 cells. The settings on record: for Cytotoxicity HepG2 IC30: HepG2, three day-incubation (Table 1); for IC50: read-out: Cytotoxicity HepG2 IC50, HepG2, three day-incubation (Table 3). The procedure: After a three day-incubation for HepG2, or 5 days for human PBM cells, cell viability and mitochondrial activity were measured in a colorimetric assay using the MTS- or MTT dye method (Promega, Madison, Wis.).
On the technique in general: Tetrazolium assays rely on reduction of a dye to a coloured formazan, in cell work by metabolically active cells.

Where [1] appears, read: Human immunodeficiency virus 1, PBMC, 120 h.
[2] abbreviates: Bovine viral diarrhea virus isolates and strains, MDBK cells, 24 hour incubation, viral RNA in supernatant.
Where [3] appears, read: AD38 cells, 5-day incubation, HBV DNA in supernatant.
[4] abbreviates: MDBK cells, 24 hour incubation, viral RNA in supernatant.

For the compound `Cc1cn([C@H]2C[C@H](N=[N+]=[N-])[C@@H](CO)O2)c(=O)[nH]c1=O` [AZT, 3′-azido-3′-deoxythymidine, reference compound], the EC90 with HIV-1 xxBRU (wild type) (setting [1]) is 0.01 µM; in the data set with BVDV (strain NADL) (setting [2]), more than 200 µM.

Take `Nc1ccn([C@@H]2CS[C@H](CO)O2)c(=O)n1` [Compound 3TC, (−)-β-2′,3′-dideoxy-3′-thiacytidine, reference compound]: the “reduction of release of HBV DNA in the supernatant” value in the data set on HBV (10 μM, 5 days, HepAD38 cells) was approximately 1.5 log. Moreover, the EC90 is 3 µM with HBV (setting [3]); 2.9 µM in the data set with HBV (Hepatitis B virus, HePAD38, 120 h, AD38 cells, 5-day incubation, HBV DNA in supernatant); 0.06 µM with HIV-1 xxBRU (wild type) (setting [1]); more than 200 µM with BVDV (strain NADL) (setting [2]). Moreover, the “Cytotoxicity HepG2 IC30” value with HepG2 was more than 100 µM.

As for `Nc1ccn([C@@H]2C=C(F)[C@H](CO)O2)c(=O)n1` [Compound 10, 1-(2,3-Dideoxy-3-fluoro-β-L-glycero-pent-2-eno-furanosyl)cytosine], the 90% effect concentration (EC90) with HBV (Hepatitis B virus, HePAD38, 120 h) is not below 100 µM; in the data set with HIV-1 xxBRU (wild type) (setting [1]), 35.4 µM; in the data set with BVDV (strain NADL) (Bovine viral diarrhea virus isolates and strains, MDBK, 24 h), more than 200 µM. In the data set on HepG2, the “Cytotoxicity HepG2 IC30” value was more than 100 µM.

In the case of `Nc1ccn([C@@H]2C=C(F)[C@H](CO)O2)c(=O)n1` [Compound 23, 1-(2,3-Didcoxy-3-fluoro-β-L-glycero-pent-2-eno-furanosyl)cytosine], the EC90 in the data set with HBV (setting [3]) is 1 µM; in the data set with HIV-1 xxBRU (wild type), 0.6 µM; with BVDV (strain NADL) (setting [4]) it was more than 200 µM. Further, the IC50 in the data set on HepG2 is more than 100 µM.

Take `Nc1ccn([C@@H]2S[C@H](CO)C=C2F)c(=O)n1` [Compound D-17, (−)-1-[(1S,4R)-2,3-dideoxy-2,3-didehydro-2-fluoro4-thio-β-D-ribofuranosyl]-cytosine]: the EC90 with HBV (setting [3]) is more than 100 µM; in the data set with HIV-1 xxBRU (wild type), 5.2 µM; with BVDV (strain NADL) (setting [4]), more than 200 µM. In addition, the “Cytotoxicity HepG2 IC30” value in the data set with HepG2 is more than 100 µM. In addition, the IC50 with HepG2 was more than 100 µM.

`Nc1nc(=O)n([C@@H]2S[C@H](CO)C=C2F)cc1F` [Compound D-18, (−)-1-[(1S,4R)-2,3-dideoxy-2,3-didehydro-2-fluoro-4-thio-β-D-ribofuranosyl]-5-fluorocytosine]: the EC90 is more than 100 µM with HBV (setting [3]), 73.9 µM with HIV-1 xxBRU (wild type) and more than 200 µM with BVDV (strain NADL) (setting [4]). In the data set with HepG2, the “Cytotoxicity HepG2 IC30” value was more than 100 µM. In the data set on HepG2, the IC50 was more than 100 µM.

With `Nc1ccn([C@H]2S[C@@H](CO)C=C2F)c(=O)n1` [Compound L-17, (+)-1-[(1S,4R)-2,3-dideoxy-2,3-didehydro-2-fluoro-4-thio-β-L-ribofuranosyl]-cytosine], the EC90 is more than 100 µM with HBV (setting [3]), 2.1 µM in the data set on HIV-1 xxBRU (wild type) and more than 200 µM with BVDV (strain NADL) (setting [4]). The “Cytotoxicity HepG2 IC30” value with HepG2 is more than 100 µM. For the same compound, the IC50 with HepG2 was more than 100 µM.

Turning to `Nc1nc(=O)n([C@H]2S[C@@H](CO)C=C2F)cc1F` [Compound L-18, (+)-1-[(1S,4R)-2,3-dideoxy-2,3-didehydro-2-fluoro-4-thio-β-L-ribofuranosyl]-5-fluoro-cytosine], the EC90 was more than 100 µM with HBV (setting [3]), 0.94 µM in the data set on HIV-1 xxBRU (wild type) and more than 200 µM in the data set on BVDV (strain NADL) (setting [4]). In the data set on HepG2, the “Cytotoxicity HepG2 IC30” value was more than 100 µM. Moreover, the IC50 in the data set on HepG2 was more than 100 µM.

The values are drawn from patent publication US6949522B2, “β-2′- or 3′-halonucleosides” (Pharmasset, Inc., priority 2001, dated 2005).
